Test results taken from patent publication US8268881B2, “Carboxamide derivatives as muscarinic receptor antagonists” (Pfizer Limited, priority 2005, dated 2012).

Biological target: T1, human muscarinic M3 receptor (Homo sapiens, UniProt P20309)
T1 construct: expressed in transfected cells
Test: hM3 β-Lac potency assay (cell based β-lactamase)
Details: CHO cells expressing human M3 receptor, NFAT β-lactamase reporter; inhibition of 80 nM carbamyl choline signal, 4 h; IC50 converted to Ki by Cheng-Prusoff; read-out: Cell based β-lactamase M3 Ki
Procedure: M3 potency was determined in CHO-K1 cells transfected with the NFAT-Betalactamase gene. CHO (Chinese Hamster Ovary) cells recombinantly expressing the human muscarinic M3 receptor were transfected with the NFAT_β-Lac_Zeo plasmid.
The cells were re-suspended at 2×10^5 cells/ml in growth medium (composition as described above). […] Inhibition curves were plotted and IC50 values generated using a 4-parameter sigmoid fit and converted to Ki values using the Cheng-Prusoff correction and the KD value for carbamyl choline in the assay.

T1 sequence (P20309 whole entry): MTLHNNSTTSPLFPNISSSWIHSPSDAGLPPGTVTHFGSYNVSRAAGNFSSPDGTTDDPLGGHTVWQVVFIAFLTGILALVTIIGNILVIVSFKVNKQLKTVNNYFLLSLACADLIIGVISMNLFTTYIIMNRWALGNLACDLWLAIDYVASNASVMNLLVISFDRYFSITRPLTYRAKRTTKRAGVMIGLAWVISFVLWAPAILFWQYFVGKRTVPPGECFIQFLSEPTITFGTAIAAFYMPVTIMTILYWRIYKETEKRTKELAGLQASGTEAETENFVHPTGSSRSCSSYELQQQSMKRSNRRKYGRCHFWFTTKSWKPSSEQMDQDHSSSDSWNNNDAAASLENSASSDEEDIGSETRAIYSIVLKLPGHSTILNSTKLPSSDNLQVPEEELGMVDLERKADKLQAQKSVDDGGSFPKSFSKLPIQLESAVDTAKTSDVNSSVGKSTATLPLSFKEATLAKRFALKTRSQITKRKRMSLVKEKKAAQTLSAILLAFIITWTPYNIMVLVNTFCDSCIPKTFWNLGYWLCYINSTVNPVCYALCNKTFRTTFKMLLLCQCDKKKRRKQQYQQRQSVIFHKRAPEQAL

| Ki [nM] | Structure (SMILES) |
| --- | --- |
| 111 | COc1ccc(C#N)c(O[C@H]2CCN(C(C)(C)CCC(C(N)=O)(c3ccccc3)c3ccccc3)C2)c1 [Example 69, 5-[(3S)-3-(2-Cyano-5-methoxy-phenoxy)-pyrrolidin-1-yl]-5-methyl-2,2-diphenylhexanamide] |
| 19.1 | CC(C)(CCC(C(N)=O)(c1ccccc1)c1ccccc1)N1CC[C@H](Oc2ccc3ccc(O)cc3c2)C1 [Example 70, 5-[(3S)-3-[(7-Hydroxy-2-naphthyl)oxy]pyrrolidin-1-yl]-5-methyl-2,2-diphenylhexanamide] |
| 113 | CC(C)(CCC(C(N)=O)(c1ccccc1)c1ccccc1)N1CC[C@H](Oc2ccc(-c3ccccc3)cc2)C1 [Example 71, 5-[(3S)-3-(4-Phenylphenoxy)pyrrolidin-1-yl]-5-methyl-2,2-diphenylhexanamide] |
| 1.23 | CC(C)(CCC(C(N)=O)(c1ccccc1)c1ccccc1)N1CC[C@@H](Oc2ccc(O)c(Cl)c2)C1 [Example 72, 5-[(3R)-3-(3-chloro-4-hydroxyphenoxy)pyrrolidin-1-yl]-5-methyl-2,2-diphenylhexanamide] |
| 0.852 | COc1cc(F)cc(O[C@@H]2CCN(C(C)(C)CCC(C(N)=O)(c3ccccc3)c3ccccc3)C2)c1 [Example 73, 5-[(3R)-3-(3-Fluoro-5-methoxy-phenoxy)-pyrrolidin-1-yl]-5-methyl-2,2-diphenylhexanamide] |
| < 0.56 | CC(C)(CCC(C(N)=O)(c1ccccc1)c1ccccc1)N1CC[C@@H](Oc2cc(O)cc(F)c2)C1 [Example 74, 5-[(3R)-3-(3-Fluoro-5-hydroxy-phenoxy)-pyrrolidin-1-yl]-5-methyl-2,2-diphenyl-hexanamide] |
| 0.582 | CC(C)(CCC(C(N)=O)(c1ccccc1)c1ccccc1)N1CC[C@@H](Oc2cccc(O)c2F)C1 [Example 76, 5-[(3R)-3-(2-Fluoro-3-hydroxy-phenoxy)-pyrrolidin-1-yl]-5-methyl-2,2-diphenylhexanamide] |
| 4.96 | COc1cccc(O[C@@H]2CCN(C(C)(C)CCC(C(N)=O)(c3ccccc3)c3ccccc3)C2)c1Cl [Example 77, 5-[(3R)-3-(2-Chloro-3-methoxy-phenoxy)-pyrrolidin-1-yl]-5-methyl-2,2-diphenylhexanamide] |
| 0.917 | CC(C)(CCC(C(N)=O)(c1ccccc1)c1ccccc1)N1CC[C@@H](Oc2cccc(O)c2Cl)C1 [Example 78, 5-[(3R)-3-(2-Chloro-3-hydroxy-phenoxy)-pyrrolidin-1-yl]-5-methyl-2,2-diphenylhexanamide] |
| 16.2 | CC(C)(CCC(C(N)=O)(c1ccccc1)c1ccccc1)N1CC[C@@H](OCc2ccc(Cl)c(O)c2)C1 [Example 79, 5-[(3R)-3-(4-Chloro-3-hydroxy-benzyloxy)-pyrrolidin-1-yl]-5-methyl-2,2-diphenyl hexanamide] |
| 35.4 | COc1cc(O[C@@H]2CCN(C(C)(C)CCC(C(N)=O)(c3ccccc3)c3ccccc3)C2)ccc1Cl [Example 81, 5-[(3R)-3-(3-methoxy-4-chloro-Phenoxy)-pyrrolidin-1-yl]-5-methyl-2,2-diphenylhexanamide] |
| 7.96 | CC(C)(CCC(C(N)=O)(c1ccccc1)c1ccccc1)N1CC[C@@H](Oc2ccc(Cl)c(O)c2)C1 [Example 82, 5-[(3R)-3-(3-hydroxy-4-chloro-phenoxy)-pyrrolidin-1-yl]-5-methyl-2,2-diphenylhexanamide] |
| 30 | CC(C)(CCC(C(N)=O)(c1ccccc1)c1ccccc1)N1CC[C@@H](Oc2ccc(C#N)c(O)c2)C1 [Example 83, 5-[(3R)-3-(3-hydroxy-4-cyano-phenoxy)-pyrrolidin-1-yl]-5-methyl-2,2-diphenylhexanamide] |
| 6.97 | COc1cccc(CO[C@H]2CCN(C(C)(C)CCC(C(N)=O)(c3ccccc3)c3ccccc3)C2)c1 [Example 84, 5-[(3S)-3-(3-methoxy-benzyloxy)pyrrolidin-1-yl]-5-methyl-2,2-diphenylhexanamide] |
| 3.19 | CC(C)(CCC(C(N)=O)(c1ccccc1)c1ccccc1)N1CC[C@@H](OCc2cccc(O)c2Cl)C1 [Example 85, 5-[(3R)-3-(2-Chloro-3-hydroxy-benzyloxy)-pyrrolidin-1-yl]-5-methyl-2,2-diphenylhexanamide] |
| 1.26 | CC(C)(CCC(C#N)(c1ccccc1)c1ccccc1)N1CCC(Oc2ccccc2)CC1 [Example 86, 5-Methyl-5-(4-phenoxypiperidin-1-yl)-2,2-diphenylhexanenitrile] |

The remaining lines, values behind:

| Structure (SMILES) | Ki [nM] |
| --- | --- |
| COc1c(Cl)cccc1O[C@@H]1CCN(C(C)(C)CCC(C(N)=O)(c2ccccc2)c2ccccc2)C1 [Example 42, 5-[(3R)-3-(3-Chloro-2-Methoxy-phenoxy)-pyrrolidin-1-yl]-5-methyl-2,2-diphenyl-hexanoic acid amide] | 22.1 |
| CC(C)(CCC(C(N)=O)(c1ccccc1)c1ccccc1)N1CC[C@@H](Oc2cccc(Cl)c2O)C1 [Example 43, 5-[(3R)-3-(3-Chloro-2-Hydroxy-phenoxy)-pyrrolidin-1-yl]-5-methyl-2,2-diphenyl-hexanoic acid amide] | 5.35 |
| Cc1cc(O)c(C)c(O[C@H]2CCN(C(C)(C)CCC(C(N)=O)(c3ccccc3)c3ccccc3)C2)c1 [Example 44, 5-[(3S)-3-(3-Hydroxy-2,5-dimethyl-phenoxy)-pyrrolidin-1-yl]-5-methyl-2,2-diphenyl-hexanoic acid amide] | 32.2 |
| CC(C)(CCC(C(N)=O)(c1ccccc1)c1ccccc1)N1CC[C@H](Oc2cc(O)cc(F)c2)C1 [Example 46, 5-[(3S)-3-(3-Fluoro-5-Hydroxy-phenoxy)-pyrrolidin-1-yl]-5-methyl-2,2-diphenyl-hexanoic acid amide] | 1.74 |
| CC(C)(CCC(C(N)=O)(c1ccccc1)c1ccccc1)N1CC[C@@H](Oc2cc(O)cc(C(F)(F)F)c2)C1 [Example 49, 5-[(3R)-3-(3-Hydroxy-5-trifluoromethyl-phenoxy)-pyrrolidin-1-yl]-5-methyl-2,2-diphenyl-hexanoic acid amide] | 48.5 |
| COc1cc(O[C@H]2CCN(C(C)(C)CCC(C(N)=O)(c3ccccc3)c3ccccc3)C2)ccc1F [Example 50, 5-[(3S)-3-(4-Fluoro-3-Methoxy-phenoxy)-pyrrolidin-1-yl]-5-methyl-2,2-diphenyl-hexanoic acid amide] | 3.18 |
| COc1cccc(O[C@H]2CCN(C(C)(C)CCC(C(N)=O)(c3ccccc3)c3ccccc3)C2)c1F [Example 51, 5-[(3S)-3-(2-Fluoro-3-Methoxy-phenoxy)-pyrrolidin-1-yl]-5-methyl-2,2-diphenyl-hexanoic acid amide] | 0.623 |
| CC(C)(CCC(C(N)=O)(c1ccccc1)c1ccccc1)N1CC[C@H](Oc2ccc(F)c(O)c2)C1 [Example 52, 5-[(3S)-3-(4-Fluoro-3-Hydroxy-phenoxy)-pyrrolidin-1-yl]-5-methyl-2,2-diphenyl-hexanoic acid amide] | 2.16 |
| CC(C)(CCC(C(N)=O)(c1ccccc1)c1ccccc1)N1CC[C@H](Oc2cccc(O)c2F)C1 [Example 53, 5-[(3S)-3-(2-Fluoro-3-Hydroxy-phenoxy)-pyrrolidin-1-yl]-5-methyl-2,2-diphenyl-hexanoic acid amide] | 0.334 |
| CC(C)(CCC(C(N)=O)(c1ccccc1)c1ccccc1)N1CC[C@@H](OCc2cccc(O)c2)C1 [Example 54, 5-[(3R)-3-(3-Hydroxy-benzyloxy)-pyrrolidin-1-yl]-5-methyl-2,2-diphenyl-hexanoic acid amide] | 3.62 |
| CC(C)(CCC(C#N)(c1ccccc1)c1ccccc1)N1CC[C@H](OCc2cccc(-c3ccccc3O)c2)C1 [Example 58, 5-{(3S)-3-[(2′-Hydroxybiphenyl-3-yl)methoxy]pyrrolidin-1-yl}-5-methyl-2,2-diphenylhexanenitrile] | 1580 |
| CC(C)(CCC(C(N)=O)(c1ccccc1)c1ccccc1)N1CC[C@H](OCc2cccc(-c3cccc(O)c3)c2)C1 [Example 61, 5-{(3S)-3-[(3′-Hydroxybiphenyl-3-yl)methoxy]pyrrolidin-1-yl}-5-methyl-2,2-diphenylhexanamide] | 9.85 |
| CC(C)(CCC(C#N)(c1ccccc1)c1ccccc1)N1CC[C@H](OCc2cccc(-c3ccc(O)cc3)c2)C1 [Example 62, 5-[(3S)-3-[(4′-Hydroxybiphenyl-3-yl)methoxy]-pyrrolidin-1-yl]5-methyl-2,2-diphenylhexanenitrile] | 57.4 |
| CC(C)(CCC(C(N)=O)(c1ccccc1)c1ccccc1)N1CC[C@H](OCc2cccc(-c3ccc(O)cc3)c2)C1 [Example 63, 5-{(3S)-3-[(4′-Hydroxybiphenyl-3-yl)methoxy]pyrrolidin-1-yl}-5-methyl-2,2-diphenylhexanamide] | 28.7 |
| CC(C)(CCC(C(N)=O)(c1ccccc1)c1ccccc1)N1CC[C@H](OCc2cccc(-c3ccccc3O)c2)C1 [Example 64, 5-{(3S)-3-[(2′-Hydroxybiphenyl-3-yl)methoxy]pyrrolidin-1-yl}-5-methyl-2,2-diphenylhexanamide] | 65.6 |
| CC(C)(CCC(C(N)=O)(c1ccccc1)c1ccccc1)N1CC[C@H](OCc2ccc(-c3cccc(O)c3)cc2)C1 [Example 65, 5-[(3S)-3-[(3′-Hydroxybiphenyl-4-yl)methoxy]pyrrolidin-1-yl]5-methyl-2,2-diphenylhexanamide] | 62.7 |
| CC(C)(CCC(C(N)=O)(c1ccccc1)c1ccccc1)N1CC[C@H](OCc2cccc(-c3ccccc3)c2)C1 [Example 66, 5-[(3S)-3-(Biphenyl-3-ylmethoxy)pyrrolidin-1-yl]-5-methyl-2,2-diphenylhexanamide] | 45.4 |
| CC(C)(CCC(C(N)=O)(c1ccccc1)c1ccccc1)N1CC[C@@H](OCc2ccc(F)c(O)c2)C1 [Example 67, 5-[(3R)-3-(4-Fluoro-3-hydroxy-benzyloxy)-pyrrolidin-1-yl]-5-methyl-2,2-diphenylhexanamide] | 10.7 |
| CC(C)(CCC(C(N)=O)(c1ccccc1)c1ccccc1)N1CC[C@H](Oc2cc(O)cc(C#N)c2)C1 [Example 68, 5-[(3S)-3-(3-Cyano-5-hydroxy-phenoxy)-pyrrolidin-1-yl]-5-methyl-2,2-diphenylhexanamide] | 9.88 |
